Source: patent publication US20170128467A1, “ANTIMICROBIAL PHARMACEUTICAL COMPOSITIONS WITH MULTIPLE DRUG RESISTANCE INHIBITING PROPERTIES” (priority 2014, published 2017)

Key:
[1] = system: Bacillus subtilis cells; experiment: Growth inhibition assay in liquid medium, B. subtilis; assay type: cell-based; conditions: for antimicrobial activity (growth inhibition): gram-positive
Description: (§1) Growing in the liquid medium method was selected as the method to test antibacterial activity of SkQ1. Overnight bacterial cells cultures were diluted in fresh LB media. Bacterial cell culture (5×10^6 cells/ml) were inoculated 200 μl into 96-well plates (Eppendorf, Eppendorf AG, Hamburg, Germany) and SkQ1 or CnTPP were added to reach various final concentrations in the range from 0.5 to 200 μM. Cells were left to grow for 21 hours at 37° C. Optical density at 600 nm was measured using an AnthosZenyth 3100 multimode reader (Anthos Labtec, Austria) during incubation.
(§2) We selected Ecsherishia coli cells as a Gram-negative model organism and Bacillus subtilis cells as a Gram-positive model organism. SkQ1 was selected as a model compound of formula 1 with antioxidant moiety. To select a proper concentration of a compound of formula 1 we performed growth inhibition assays for several SkQ1 concentrations (see FIGS. 8 A and B). It can be concluded from the results of this experiment that 1 μM SkQ1 is the minimal inhibitory concentration (MIC) for B. subtilis cells.

[2] = system: ΔTolC (JW5503); experiment: Growth inhibition assay, TolC deletion mutant; assay type: cell-based, Escherichia coli K-12; conditions: for IMPOSSIBILITY OF GROWTH: ΔTolC
Description: as §1
(§3) In this experiment we have tested whether To1C-dependent transporter is responsible for resistance of E. coli's cells to SkQ1. In the experiment we used single-gene knockout mutants from Keio collection [Baba T., et al., (2006)]. Construction of Escherichia coli K-12 in-frame, single-gene knockout mutants: the Keio collection. Mol. Syst. Biol. 2, 2006.0008.]. […] We used other knockout mutants of genes encoding proteins of transporters that require To1C for their function. […] In contrast, deletion of genes acrA or acrB dramatically changed the sensitivity of E. coli's cells to SkQ1.
Table 1. Results of growth inhibition assay for deletion mutants of genes encoding To1C-required efflux pumps proteins. Deletion strains JW5503 (devoid of the to1C gene), JW0452 (devoid of the acrA gene), JW0451 (devoid of the acrB gene), JW2454 (devoid of the acrD gene), JW3233 (devoid of the acrE gene), JW3234 (devoid of the acrF gene), JW5338 (devoid of the mdtA gene), JW2060 (devoid of the mdtB gene), JW2061 (devoid of the mdtC gene), JW3481 (devoid of the mdtE gene), and JW3482 (devoid of the mdtF gene) have been described in Baba T., et al., (2006). Construction of Escherichia coli K-12 in-frame, single-gene knockout mutants: the Keio collection. Mol. Syst. Biol. 2, 2006.0008.

[3] = system: E. coli; experiment: Growth inhibition assay in liquid medium, E. coli; assay type: cell-based, Escherichia coli
Description: as §1, §2

[4] = system: ΔAcrB (JW0451); experiment: Growth inhibition assay, AcrB deletion mutant; assay type: cell-based, Escherichia coli K-12
Description: as §1, §3
(§4) Table 1. Results of growth inhibition assay for deletion mutants of genes encoding To1C-required efflux pumps proteins. […]

[5] = biological target: T1, MDR pumps (Pdr5p) of yeast cells (Saccharomyces cerevisiae, UniProt P33302); assay type: cell-based; conditions: 2 μM compound
T1 construct: We measured the efflux of R6G from intact yeast cells using fluorometric method; endogenous in cells; host or cells: S. cerevisiae W303-1A (WT); AD1-8 as MDR-negative control
T1 sequence (P33302 whole entry): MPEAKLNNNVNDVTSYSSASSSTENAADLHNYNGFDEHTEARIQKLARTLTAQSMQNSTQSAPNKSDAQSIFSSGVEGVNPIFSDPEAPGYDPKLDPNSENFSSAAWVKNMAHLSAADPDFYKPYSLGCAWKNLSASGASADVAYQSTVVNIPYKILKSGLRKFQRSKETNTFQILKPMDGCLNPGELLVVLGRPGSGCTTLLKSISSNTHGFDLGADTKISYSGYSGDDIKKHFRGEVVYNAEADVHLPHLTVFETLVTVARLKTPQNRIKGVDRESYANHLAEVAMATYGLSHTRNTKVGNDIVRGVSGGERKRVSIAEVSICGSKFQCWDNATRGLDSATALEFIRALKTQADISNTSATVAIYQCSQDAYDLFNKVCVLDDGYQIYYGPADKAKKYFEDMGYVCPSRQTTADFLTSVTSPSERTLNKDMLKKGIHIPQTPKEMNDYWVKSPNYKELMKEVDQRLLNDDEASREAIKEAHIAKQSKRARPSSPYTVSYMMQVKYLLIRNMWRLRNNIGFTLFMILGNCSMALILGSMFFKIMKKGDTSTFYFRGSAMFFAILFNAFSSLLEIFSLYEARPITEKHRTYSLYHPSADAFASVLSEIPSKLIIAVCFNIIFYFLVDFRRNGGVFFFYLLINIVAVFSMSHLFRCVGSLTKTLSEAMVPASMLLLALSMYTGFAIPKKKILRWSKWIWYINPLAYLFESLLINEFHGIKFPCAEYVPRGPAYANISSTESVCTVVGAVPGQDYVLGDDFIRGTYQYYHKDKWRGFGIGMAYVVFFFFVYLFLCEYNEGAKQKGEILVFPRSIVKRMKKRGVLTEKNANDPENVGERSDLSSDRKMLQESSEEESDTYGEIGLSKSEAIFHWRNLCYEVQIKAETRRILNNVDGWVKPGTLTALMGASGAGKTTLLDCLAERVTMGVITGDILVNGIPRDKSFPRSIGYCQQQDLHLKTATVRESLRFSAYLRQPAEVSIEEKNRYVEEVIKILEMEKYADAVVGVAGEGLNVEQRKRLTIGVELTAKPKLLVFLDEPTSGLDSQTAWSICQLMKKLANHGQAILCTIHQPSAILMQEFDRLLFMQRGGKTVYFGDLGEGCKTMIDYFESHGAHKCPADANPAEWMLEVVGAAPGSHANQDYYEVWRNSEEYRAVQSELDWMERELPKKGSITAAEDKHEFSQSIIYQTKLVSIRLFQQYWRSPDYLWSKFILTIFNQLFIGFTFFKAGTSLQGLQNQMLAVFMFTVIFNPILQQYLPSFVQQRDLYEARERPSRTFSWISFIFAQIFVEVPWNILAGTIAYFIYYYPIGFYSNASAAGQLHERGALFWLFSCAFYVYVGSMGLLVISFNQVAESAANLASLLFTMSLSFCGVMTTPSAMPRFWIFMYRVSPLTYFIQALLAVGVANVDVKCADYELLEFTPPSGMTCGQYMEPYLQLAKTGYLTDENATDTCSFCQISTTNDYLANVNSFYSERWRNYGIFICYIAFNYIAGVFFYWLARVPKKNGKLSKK
Description: The ordinate corresponds to the ratio of slopes in a and b.
To measure the relative rate of rhodamine 6G efflux we used fluorometric assay implemented by Kolaczkowsky et al., with few modifications. Cells were grown overnight in 40 ml in liquid YPD to density of 0.5-1*10^7 cells/ml, washed twice with cold sterile water and resuspended in 10 ml phosphate buffer saline supplemented with 5 mM 2-deoxyglucose and 2.5 mM 2,4-dinitrophenol. Cell suspension was incubated for 45 minutes on a rotatory shaker, then the inhibitors were removed by two cycles of centrifugation/resuspension in cold water. The energy deprived cells were resuspended in 10 ml of PBS and then stained with R6G (10 μM) for 30 minutes. Then cell suspension was pelleted, resuspended in equal volume of PBS and stored on ice for 1-5 hours. The measurements of efflux were performed with FluoroMax-3 fluorometer system with exication wavelength set to 480 nm, and emission wavelength set to 560 nm. The R6G efflux was initiated by addition of 0.1% glucose, cell density in fluorometric cuvette was 10^6 cells/ml.

[6] = biological target: T2, AcrAB-To1C transporter (Escherichia coli, UniProt P31224); experiment: Ethidium bromide accumulation experiment; assay type: cell-based; conditions: SkQ1 50 μM; ethidium bromide 20 μg/ml
T2 construct: endogenous in cells
T2 sequence (P0AE06 25-397): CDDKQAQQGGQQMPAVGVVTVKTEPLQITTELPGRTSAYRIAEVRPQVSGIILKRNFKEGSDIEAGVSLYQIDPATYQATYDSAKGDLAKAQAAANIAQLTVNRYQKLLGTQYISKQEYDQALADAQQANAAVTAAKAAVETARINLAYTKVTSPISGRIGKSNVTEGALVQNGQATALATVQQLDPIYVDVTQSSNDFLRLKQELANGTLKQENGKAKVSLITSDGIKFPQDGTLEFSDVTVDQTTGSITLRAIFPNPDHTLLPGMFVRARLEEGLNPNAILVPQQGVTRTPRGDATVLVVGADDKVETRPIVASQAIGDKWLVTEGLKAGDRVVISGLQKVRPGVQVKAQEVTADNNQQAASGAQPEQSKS
T2 sequence (P02930 23-493, further chain): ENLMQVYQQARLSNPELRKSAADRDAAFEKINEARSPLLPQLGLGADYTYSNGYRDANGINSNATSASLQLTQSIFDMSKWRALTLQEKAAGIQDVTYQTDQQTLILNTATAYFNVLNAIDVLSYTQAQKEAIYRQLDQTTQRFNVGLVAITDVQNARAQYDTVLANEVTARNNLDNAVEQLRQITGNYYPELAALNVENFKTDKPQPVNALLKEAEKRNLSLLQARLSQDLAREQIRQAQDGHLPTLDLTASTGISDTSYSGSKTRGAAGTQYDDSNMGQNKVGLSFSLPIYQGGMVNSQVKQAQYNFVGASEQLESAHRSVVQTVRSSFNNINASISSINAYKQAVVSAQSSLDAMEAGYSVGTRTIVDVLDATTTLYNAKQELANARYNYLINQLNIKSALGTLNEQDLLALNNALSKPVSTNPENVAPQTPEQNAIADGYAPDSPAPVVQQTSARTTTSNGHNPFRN
T2 sequence (P31224 whole entry): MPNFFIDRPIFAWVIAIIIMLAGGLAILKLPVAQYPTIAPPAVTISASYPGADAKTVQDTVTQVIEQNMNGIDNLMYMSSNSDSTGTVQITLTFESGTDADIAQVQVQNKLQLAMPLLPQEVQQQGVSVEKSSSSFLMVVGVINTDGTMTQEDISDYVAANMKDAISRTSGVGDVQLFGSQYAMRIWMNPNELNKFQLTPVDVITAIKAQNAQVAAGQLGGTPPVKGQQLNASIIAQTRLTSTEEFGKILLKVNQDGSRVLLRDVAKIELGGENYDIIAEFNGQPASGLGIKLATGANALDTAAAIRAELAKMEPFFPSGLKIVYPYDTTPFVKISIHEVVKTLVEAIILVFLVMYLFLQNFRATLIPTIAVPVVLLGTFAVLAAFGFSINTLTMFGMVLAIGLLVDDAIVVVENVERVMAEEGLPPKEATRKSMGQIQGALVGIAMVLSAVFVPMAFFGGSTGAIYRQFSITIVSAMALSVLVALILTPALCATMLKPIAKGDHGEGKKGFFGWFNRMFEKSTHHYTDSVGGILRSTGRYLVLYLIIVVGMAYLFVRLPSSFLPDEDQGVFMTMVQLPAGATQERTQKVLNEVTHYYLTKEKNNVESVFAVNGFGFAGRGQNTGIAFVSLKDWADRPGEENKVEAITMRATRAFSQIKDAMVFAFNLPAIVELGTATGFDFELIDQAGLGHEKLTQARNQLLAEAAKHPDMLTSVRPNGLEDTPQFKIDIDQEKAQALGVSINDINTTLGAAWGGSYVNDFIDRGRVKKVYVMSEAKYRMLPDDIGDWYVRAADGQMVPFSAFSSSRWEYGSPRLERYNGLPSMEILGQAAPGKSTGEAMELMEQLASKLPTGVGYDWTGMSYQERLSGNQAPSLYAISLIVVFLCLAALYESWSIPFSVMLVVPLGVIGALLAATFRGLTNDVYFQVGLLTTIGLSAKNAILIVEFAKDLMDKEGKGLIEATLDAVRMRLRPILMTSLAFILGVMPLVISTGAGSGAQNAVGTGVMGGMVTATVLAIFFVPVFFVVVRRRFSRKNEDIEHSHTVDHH
Description: For emulation of cell membrane leakage, bacterial cells were resuspended in deionized water. Ethidium bromide was added (20 μg/ml) and the change of fluorescence intensity was recorded on Fluorat-02-Panorama. For detecting of the accumulation of ethidium bromide, SkQ1 was added to a concentration of 50 μM.
To confirm whether AcrAB-To1C is the appropriate transporter, we used a test based on the measurement of ethidium bromide leakage through intact bacterial membranes. […] Bacterial cells were prepared and resuspended in PBS. For emulation of cell membrane leakage bacterial cells were resuspended in deionized water (Milli-Q water purification system, EMD Millipore, Billerica, Mass.). Ethidium bromide was added (20 μg/ml) and the change of fluorescence intensity was recorded on Fluorat-02-Panorama (Lumex Instruments, Russia) spectrofluorometer. For increasing the accumulation of ethidium bromide, SkQ1 was added to reach a concentration of 50 μM. […] We observed ethidium bromide accumulation when ethidium bromide concentration was 40-times less than MIC for E. coli cells that only can be the result of collateral action of SkQ1 and ethidium bromide as substrates for AcrAB-To1C transporter.

[7] = system: S. cerevisiae W303-1A and PGAL-PDR5, PGAL-SNQ2, PGAL-YOR1 strains; experiment: Survival assay (CFU) of yeast treated with C12TPP or SkQ1; assay type: cell-based, Saccharomyces cerevisiae; conditions: galactose-grown cells, 3 hours treatment
Source text: FIG. 1A show the chemical structure of dodecyltriphenylphosphonium C12TPP and its plastoquinone derivative (SkQ1) used in this study.
In this example, we used W303-1A S. cerevisiae strains and its derivatives: AD1-8 with deletions of eight MDR genes [W303-1A, yor1::hisG, snq2::hisG, pdr5:shisG, pdr10::hisG, pdr11::hisG, ycf1::hisG, pdr3::hisG, pdr15::hisG][4]□, PGAL-PDR5 [W303-1A HIS3::PGAL-PDR5], PGAL-SNQ2 [W303-1A HIS3::PGAL-SNQ2], and […] [W303-1AHIS3::PGAL-YOR1](this study). Cells were grown in YPD medium (2% glucose, 1% bactopeptone, 1% yeast extract), or in YPGal (2% galactose, 1% bactopepton, 1% yeast extract). For genetic screening and maintenance of strains with conditionally expressed genes synthetic drop-out media YNB-Leu or YNB-His were used according to Sherman 2000 [5]. The growth rates were measured by increase of light scattering (λ=550 nm) in liquid yeast culture.
Exponentially grown cells were taken and treated with indicated amounts of C12TPP or SKQ1 for 3 hours. Then cell suspensions were plated on solid YPD medium and incubated for 48 hours, the number of formed colonies were counted. 100% refers to the number of colony forming units (CFU) in yeast suspension at the beginning of experiment.

[8] = system: ΔAcrA (JW0452); experiment: Growth inhibition assay, AcrA deletion mutant; assay type: cell-based, Escherichia coli K-12
Description: as §1, §3, §4

SMILES: CC1=C(C)C(=O)C(CCCCCCCCCC[P+](c2ccccc2)(c2ccccc2)c2ccccc2)=C(C)C1=O [SkQ3]
- antimicrobial activity (growth inhibition) [1]: have antimicrobial activity

SMILES: CC1=C(C)C(=O)C(CCCCCCCCCC[P+](c2ccccc2)(c2ccccc2)c2ccccc2)=CC1=O [SkQ1, plastoquinonildecyltriphenylphosphonium]
- MBC ([2]; Escherichia coli, read-out: minimal bactericidal concentration): ~2 µM
- IMPOSSIBILITY OF GROWTH ([2]; 5 μM): YES
- IMPOSSIBILITY OF GROWTH ([2]; 30 μM): YES
- growth inhibition at 1 μM ([3]; 1 μM SkQ1): did not inhibit significantly growth
- MIC ([3]; Escherichia coli, LB media, 37° C., read-out: minimal inhibitory concentration (MIC)): 50 µM
- antimicrobial activity (growth inhibition) ([3]; gram-negative): mild antimicrobial activity
- IMPOSSIBILITY OF GROWTH ([4]; 5 μM): YES
- IMPOSSIBILITY OF GROWTH ([4]; 30 μM): YES
- inhibition of glucose-induced R6G efflux from yeast cells [5]: much more efficient
- inhibition of glucose-induced R6G efflux from yeast cells pretreated with NaN3 ([5]; cells pretreated with 10 mM NaN3): inhibits glucose-induced R6G efflux
- ethidium bromide leakage through bacterial membranes (accumulation) [6]: comparable to ethidium bromide leakage during osmotic shock
- substrate of AcrAB-To1C transporter [6]: is a substrate for AcrAB-To1C transporter
- resistance of cells (survival) under overexpression of MDR pump genes [7]: did not observe any effect of MDR overexpression
- MIC ([1]; Bacillus subtilis, LB media, 37° C., read-out: minimal inhibitory concentration (MIC)): 1 µM
- antimicrobial activity (growth inhibition) [1]: strong antimicrobial activity
- IMPOSSIBILITY OF GROWTH ([8]; 5 μM): YES
- IMPOSSIBILITY OF GROWTH ([8]; 30 μM): YES

SMILES: CC1=CC(=O)C(CCCCCCCCCC[P+](c2ccccc2)(c2ccccc2)c2ccccc2)=CC1=O [SkQT-para]
- antimicrobial activity (growth inhibition) [1]: have antimicrobial activity

SMILES: CC1=C(C)C(=O)C(CCCCC[P+](c2ccccc2)(c2ccccc2)c2ccccc2)=CC1=O [SkQ5]
- antimicrobial activity (growth inhibition) [1]: have antimicrobial activity

SMILES: CCCCCCCC[P+](c1ccccc1)(c1ccccc1)c1ccccc1 [C8TPP, octyltriphenylphosphonium]
- antimicrobial activity (growth inhibition) ([2]; To1C-deletion mutant): have antimicrobial activity
- antimicrobial activity (growth inhibition) [1]: have antimicrobial activity
